Results from the kinase profiling compilation of Christmann-Franck et al. (2016).

How the values were obtained:
Test in all cases: KINOMEscan competition binding
Settings in all cases: compound 10.0 µM
[1] = system: PIK3CA (human), P42336 [E545K]
[2] = system: FLT3 (human), P36888 [N841I]
[3] = system: PIK3CA (human), P42336 [I800L]
[4] = system: FLT3 (human), P36888 [K663Q]
[5] = system: EGFR (human), P00533 [P753S; 747-752 del]
[6] = system: EIF2AK4 KD2 (human), Q9P2K8 [S808G]
[7] = system: EGFR (human), P00533 [746-750 del]
[8] = system: FLT3 (human), P36888 [ITD]
[9] = system: PIK3CA (human), P42336 [H1047Y]
[10] = system: ABL1 (human), P00519 [M351T]
[11] = system: EGFR (human), P00533 [G719S]
[12] = system: ABL1 (human), P00519 [E255K]
[13] = system: EGFR (human), P00533 [L861Q]
[14] = system: PIK3CA (human), P42336 [E545A]
[15] = system: PIK3CA (human), P42336 [Q546K]
[16] = system: PIK3CA (human), P42336 [C420R]
[17] = system: KIT (human), P10721 [V559D]
[18] = system: KIT (human), P10721 [D816V]
[19] = system: KIT (human), P10721 [V559D/T670I]
Sequence of KIT (human), P10721 [V559D/T670I] (P10721 whole entry V559D/T670I, looked up): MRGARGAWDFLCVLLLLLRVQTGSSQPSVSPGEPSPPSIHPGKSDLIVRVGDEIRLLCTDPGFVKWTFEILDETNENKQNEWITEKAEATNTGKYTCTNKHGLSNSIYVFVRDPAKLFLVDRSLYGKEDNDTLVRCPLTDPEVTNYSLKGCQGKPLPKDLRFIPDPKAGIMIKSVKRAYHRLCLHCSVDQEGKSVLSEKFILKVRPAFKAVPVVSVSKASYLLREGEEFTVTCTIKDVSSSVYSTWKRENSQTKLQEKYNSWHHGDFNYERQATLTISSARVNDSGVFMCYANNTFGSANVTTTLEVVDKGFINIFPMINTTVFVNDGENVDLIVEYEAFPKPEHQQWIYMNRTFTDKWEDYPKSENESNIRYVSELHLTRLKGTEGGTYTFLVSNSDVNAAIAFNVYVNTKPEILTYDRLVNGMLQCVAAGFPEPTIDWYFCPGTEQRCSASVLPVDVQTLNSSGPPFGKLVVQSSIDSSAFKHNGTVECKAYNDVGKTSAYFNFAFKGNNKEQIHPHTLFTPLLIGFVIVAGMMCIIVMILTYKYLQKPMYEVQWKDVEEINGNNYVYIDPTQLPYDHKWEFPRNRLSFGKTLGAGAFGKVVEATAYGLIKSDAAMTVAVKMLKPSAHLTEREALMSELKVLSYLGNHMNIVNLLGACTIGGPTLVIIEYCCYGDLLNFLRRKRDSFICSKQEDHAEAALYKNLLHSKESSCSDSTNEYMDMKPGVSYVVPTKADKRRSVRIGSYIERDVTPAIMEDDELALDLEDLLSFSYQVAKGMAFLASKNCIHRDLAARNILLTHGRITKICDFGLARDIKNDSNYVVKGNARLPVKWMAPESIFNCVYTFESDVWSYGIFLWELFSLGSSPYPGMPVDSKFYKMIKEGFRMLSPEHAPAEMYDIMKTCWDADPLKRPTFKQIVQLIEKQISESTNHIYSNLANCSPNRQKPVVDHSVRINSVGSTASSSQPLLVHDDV

Sequence of PIK3CA (human), P42336 [I800L] (P42336 whole entry I800L, looked up): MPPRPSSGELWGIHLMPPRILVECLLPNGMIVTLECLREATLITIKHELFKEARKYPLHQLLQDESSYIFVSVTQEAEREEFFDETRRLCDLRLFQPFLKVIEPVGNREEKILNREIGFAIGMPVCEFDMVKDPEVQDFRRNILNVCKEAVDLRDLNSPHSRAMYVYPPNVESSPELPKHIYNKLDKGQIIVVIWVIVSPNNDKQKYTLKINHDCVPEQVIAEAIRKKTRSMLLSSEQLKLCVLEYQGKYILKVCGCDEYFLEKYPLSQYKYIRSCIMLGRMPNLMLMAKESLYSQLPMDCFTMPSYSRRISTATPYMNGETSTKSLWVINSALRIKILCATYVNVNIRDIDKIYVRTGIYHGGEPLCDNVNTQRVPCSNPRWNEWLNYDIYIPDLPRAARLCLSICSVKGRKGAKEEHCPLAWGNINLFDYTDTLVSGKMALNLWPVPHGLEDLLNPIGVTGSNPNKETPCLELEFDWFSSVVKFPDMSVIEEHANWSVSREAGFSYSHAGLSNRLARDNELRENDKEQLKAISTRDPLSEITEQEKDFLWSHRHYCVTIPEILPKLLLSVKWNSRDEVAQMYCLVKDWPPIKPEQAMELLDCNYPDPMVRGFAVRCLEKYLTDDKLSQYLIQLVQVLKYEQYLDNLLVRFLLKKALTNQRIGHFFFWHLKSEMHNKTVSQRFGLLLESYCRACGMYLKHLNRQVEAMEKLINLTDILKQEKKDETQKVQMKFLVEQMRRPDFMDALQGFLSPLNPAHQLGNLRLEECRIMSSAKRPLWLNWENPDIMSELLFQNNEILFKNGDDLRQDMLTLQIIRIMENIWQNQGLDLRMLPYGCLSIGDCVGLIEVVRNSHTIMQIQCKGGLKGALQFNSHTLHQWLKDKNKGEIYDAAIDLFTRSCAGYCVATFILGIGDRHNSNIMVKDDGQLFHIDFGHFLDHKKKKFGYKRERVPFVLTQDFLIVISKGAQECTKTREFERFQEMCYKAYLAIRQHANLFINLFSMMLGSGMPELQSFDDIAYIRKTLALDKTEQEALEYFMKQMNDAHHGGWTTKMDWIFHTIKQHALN
Sequence of PIK3CA (human), P42336 [Q546K] (P42336 whole entry Q546K, looked up): as the sequence (P42336 whole entry I800L, looked up) above, with Q546K, L800I counted along it
Sequence of EIF2AK4 KD2 (human), Q9P2K8 [S808G] (Q9P2K8 whole entry S808G, looked up): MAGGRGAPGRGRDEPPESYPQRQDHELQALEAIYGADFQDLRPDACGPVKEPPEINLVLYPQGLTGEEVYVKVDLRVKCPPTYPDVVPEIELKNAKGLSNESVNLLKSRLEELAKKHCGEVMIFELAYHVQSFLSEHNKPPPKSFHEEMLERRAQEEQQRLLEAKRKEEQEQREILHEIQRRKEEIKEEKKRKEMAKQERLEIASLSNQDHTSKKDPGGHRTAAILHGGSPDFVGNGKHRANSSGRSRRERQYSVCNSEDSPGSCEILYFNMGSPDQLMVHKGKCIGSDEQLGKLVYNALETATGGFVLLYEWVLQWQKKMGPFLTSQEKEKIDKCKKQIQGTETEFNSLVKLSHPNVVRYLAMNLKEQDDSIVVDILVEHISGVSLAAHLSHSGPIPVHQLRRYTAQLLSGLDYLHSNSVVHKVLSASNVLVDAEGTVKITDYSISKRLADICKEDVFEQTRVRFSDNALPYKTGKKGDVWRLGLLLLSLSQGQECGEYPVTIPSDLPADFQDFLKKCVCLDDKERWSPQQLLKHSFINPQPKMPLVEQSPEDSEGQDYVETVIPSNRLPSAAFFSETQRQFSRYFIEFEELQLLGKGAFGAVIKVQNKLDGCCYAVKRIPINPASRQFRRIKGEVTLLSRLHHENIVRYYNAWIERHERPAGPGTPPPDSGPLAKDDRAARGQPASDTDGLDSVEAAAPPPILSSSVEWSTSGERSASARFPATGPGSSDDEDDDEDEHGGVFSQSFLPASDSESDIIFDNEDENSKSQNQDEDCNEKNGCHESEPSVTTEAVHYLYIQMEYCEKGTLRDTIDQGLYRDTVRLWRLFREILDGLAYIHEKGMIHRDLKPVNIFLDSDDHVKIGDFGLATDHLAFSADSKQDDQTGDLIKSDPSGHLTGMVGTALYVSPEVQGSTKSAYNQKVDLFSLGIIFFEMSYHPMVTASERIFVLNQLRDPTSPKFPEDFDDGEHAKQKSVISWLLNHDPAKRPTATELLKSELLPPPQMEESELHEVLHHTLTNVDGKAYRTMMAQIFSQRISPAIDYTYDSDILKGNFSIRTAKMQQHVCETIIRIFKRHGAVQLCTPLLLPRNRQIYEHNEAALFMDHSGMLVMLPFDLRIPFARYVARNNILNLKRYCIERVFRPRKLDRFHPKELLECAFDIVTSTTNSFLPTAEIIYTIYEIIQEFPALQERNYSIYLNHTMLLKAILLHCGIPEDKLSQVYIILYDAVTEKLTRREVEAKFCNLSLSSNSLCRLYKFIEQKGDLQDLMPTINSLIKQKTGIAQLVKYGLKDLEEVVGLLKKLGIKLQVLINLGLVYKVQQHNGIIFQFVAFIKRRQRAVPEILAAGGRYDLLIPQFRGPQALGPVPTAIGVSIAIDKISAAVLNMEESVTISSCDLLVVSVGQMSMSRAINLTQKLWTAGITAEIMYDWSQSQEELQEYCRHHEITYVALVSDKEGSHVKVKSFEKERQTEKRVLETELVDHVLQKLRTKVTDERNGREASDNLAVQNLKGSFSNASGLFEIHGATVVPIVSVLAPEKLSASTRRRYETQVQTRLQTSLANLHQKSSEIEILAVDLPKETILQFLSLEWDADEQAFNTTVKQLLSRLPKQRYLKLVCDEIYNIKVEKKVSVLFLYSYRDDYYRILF
Sequence of KIT (human), P10721 [V559D] (P10721 whole entry V559D, looked up): as the sequence (P10721 whole entry V559D/T670I, looked up) above, with I670T counted along it
Sequence of KIT (human), P10721 [D816V] (P10721 whole entry D816V, looked up): as the sequence (P10721 whole entry V559D/T670I, looked up) above, with D559V, I670T, D816V counted along it
Sequence of PIK3CA (human), P42336 [E545K] (P42336 whole entry E545K, looked up): as the sequence (P42336 whole entry I800L, looked up) above, with E545K, L800I counted along it
Sequence of PIK3CA (human), P42336 [C420R] (P42336 whole entry C420R, looked up): as the sequence (P42336 whole entry I800L, looked up) above, with C420R, L800I counted along it
Sequence of PIK3CA (human), P42336 [H1047Y] (P42336 whole entry H1047Y, looked up): as the sequence (P42336 whole entry I800L, looked up) above, with L800I, H1047Y counted along it
Sequence of PIK3CA (human), P42336 [E545A] (P42336 whole entry E545A, looked up): as the sequence (P42336 whole entry I800L, looked up) above, with E545A, L800I counted along it

kinase still bound, per cent of control [1] [%] | kinase still bound, per cent of control [2] [%] | kinase still bound, per cent of control [3] [%] | kinase still bound, per cent of control [4] [%] | kinase still bound, per cent of control [5] [%] | kinase still bound, per cent of control [6] [%] | kinase still bound, per cent of control [7] [%] | kinase still bound, per cent of control [8] [%] | kinase still bound, per cent of control [9] [%] | kinase still bound, per cent of control [10] [%] | kinase still bound, per cent of control [11] [%] | kinase still bound, per cent of control [12] [%] | kinase still bound, per cent of control [13] [%] | kinase still bound, per cent of control [14] [%] | kinase still bound, per cent of control [15] [%] | kinase still bound, per cent of control [16] [%] | kinase still bound, per cent of control [17] [%] | kinase still bound, per cent of control [18] [%] | kinase still bound, per cent of control [19] [%] | Structure (SMILES)
100 | 0 | 100 | 0.1 | 4.6 | 0.3 | 4.2 | 0 | 36 | 0 | 0 | 0 | 1.5 | 16 | 83 | 62 |  |  |  | NC(=O)Nc1cc(-c2cccc(F)c2)sc1C(=O)N[C@@H]1CCCNC1
100 | 28 | 91 | 17 | 85 | 0.95 | 93 | 68 | 90 | 46 | 72 | 46 | 34 | 92 | 86 | 100 | 0.05 | 49 | 46 | CCCS(=O)(=O)Nc1ccc(F)c(C(=O)c2c[nH]c3ncc(Cl)cc23)c1F
100 | 12 | 64 | 17 | 76 | 3.3 | 67 | 28 | 100 | 69 | 94 | 75 | 92 | 58 | 75 | 100 | 1 | 5.3 | 4.2 | N#Cc1cc(-c2ccnc(Nc3ccc(-n4cnc(-c5cccnc5)n4)cc3)n2)cc(N2CCOCC2)c1
100 | 0.25 | 100 | 0.05 | 0.55 | 0.6 | 3.8 | 0.35 | 90 | 2.2 | 0 | 1 | 0 | 92 |  | 100 | 0 | 0.65 | 0.05 | CCN1CCN(Cc2ccc(NC(=O)c3ccc(C)c(/C=C/c4cnc5[nH]ccc5c4OC)c3)cc2C(F)(F)F)CC1
98 | 28 | 99 | 17 |  | 100 |  | 50 | 50 |  |  | 24 |  | 54 | 32 | 72 | 32 | 5.6 |  | CCc1nc(-c2cccc(C)c2)c(-c2ccnc(NC(=O)c3ccccc3)c2)s1
96 | 48 | 27 | 95 |  | 60 |  | 92 | 66 | 88 |  | 79 |  | 41 | 81 | 86 | 26 | 50 | 52 | N#C/C(=C1/Nc2ccccc2S1)c1ccnc(NCCc2cccnc2)n1
90 |  | 24 |  | 63 | 16 |  | 26 | 36 | 81 | 98 | 60 | 100 | 54 | 96 | 100 | 21 | 1.4 | 21 | COc1cc2ncn(-c3cc(OCc4ccccc4C(F)(F)F)c(C(N)=O)s3)c2cc1OC
100 | 2 |  | 5.6 |  | 100 |  |  | 18 |  |  |  |  | 21 | 17 | 71 | 27 | 32 | 7 | C[C@@H](Oc1cc(-c2cnn(C3CCNCC3)c2)cnc1N)c1c(Cl)ccc(F)c1Cl
 | 0.25 |  | 0.5 |  |  |  | 2.8 |  |  |  |  |  |  |  |  | 0.05 | 3.6 | 0.1 | CNC(=O)c1cc(Oc2ccc(NC(=O)Nc3ccc(Cl)c(C(F)(F)F)c3)cc2)ccn1
75 | 2.1 | 6 | 30 | 87 | 0.4 |  | 20 | 17 |  |  | 44 | 82 | 10 | 10 | 41 | 45 | 74 | 61 | CC(=O)c1c(C)c2cnc(Nc3ccc(N4CCNCC4)cn3)nc2n(C2CCCC2)c1=O
100 | 2.2 |  |  | 100 | 1.2 | 100 | 22 | 100 | 66 | 79 | 29 | 66 |  | 100 | 100 | 16 | 16 | 45 | N#CCNC(=O)c1ccc(-c2ccnc(Nc3ccc(N4CCOCC4)cc3)n2)cc1
100 | 79 | 100 | 79 |  | 81 |  | 87 | 47 |  |  |  |  | 33 | 38 |  | 17 | 89 | 100 | COCC(=O)NC/C=C/c1ccc2ncnc(Nc3ccc(Oc4ccc(C)nc4)c(C)c3)c2c1
